Earlier results on one compound are cited in patent US10253371B2, “Method of treating leukemia based on gene expression of clock genes” (National Guard Health Affairs, priority 2016, dated 2019).

The test system of one data set is Bcr-Abl tyrosine kinase. To be noted: more potent than imatinib.
For the next data set, the system named is Bcr-Abl expressing cells. To be noted: more potent than imatinib.

In the case of `Cc1cn(-c2cc(NC(=O)c3ccc(C)c(Nc4nccc(-c5cccnc5)n4)c3)cc(C(F)(F)F)c2)cn1` [Nilotinib], in the data set on Bcr-Abl tyrosine kinase, the “potency relative to imatinib in inhibiting Bcr-Abl tyrosine kinase activity” value was 10-30 fold. Moreover, the “potency relative to imatinib in inhibiting proliferation of Bcr-Abl expressing cells” value in the data set with Bcr-Abl expressing cells is listed as 10-30 fold.
